Results published in patent US20250101063A1, “POLYPEPTIDE COMPOUND AND USE THEREOF IN TREATMENT OF ENTERITIS” (Sichuan Gooddoctor Panxi Pharmaceutical Co., Ltd., priority 2022, published 2025).
Where no end group is shown, it is not given here. [ ]: non-standard residue; d: D form.

How the values were obtained:
[1] = system: TNBS-induced model of acute inflammatory bowel disease (UC) in SD rat; assay: TNBS-induced model of acute inflammatory bowel disease (UC) in SD rat; format: in vivo
Text: In this experiment, a rat model of ulcerative colitis was established by administering trinitrobenzene sulfonic acid (TNBS) to laboratory animal male SD rats for a single enema intervention. Acute colitis in rats induced by trinitrobenzene sulfonic acid (TNBS) is an immune response induced by cytokines secreted by Th1 type cells. […] This model is simple to establish and has good reproducibility. It is an experimental animal model widely used in evaluating drugs for the treatment of inflammatory bowel disease. […] During the experimental treatment period (D1-D14), the body weight and general clinical observation indicators (including but not limited to food intake, water intake, activity level and defecation, etc.) of the animals in each experimental group were dynamically collected. At the same time, based on the relevant scoring standards for the disease activity index of ulcerative colitis, the reactivity such as the weight loss degree, stool morphology and trait, and bloody stool of the animals in each experimental group after TNBS induction were scored, and the disease activity index (DAI) of ulcerative colitis was calculated, once a day for 14 consecutive days. At the end point of the experiment, colon tissues of animals in each experimental group were collected, and the length and weight of the colon were measured and then the non-autopsy images were collected. Then the colon was cut open along the intestinal wall longitudinally and autopsy images were collected. Based on the “Criteria for Scoring Gross Morphological Manifestations of the Colon”, the gross damage with respect to colon adhesions, colon ulcers and inflammation of animals in each experimental group was observed and scored. Ulcer images were collected under a stereomicroscope and the area of colon ulcer foci was calculated, followed by routine fixation.

[2] = system: zebrafish model of intestinal mucosal injury; assay: Efficacy in relieving colitis: intestinal lumen area in TNBS-treated zebrafish; format: in vivo; set-up: key to Activity in relieving intestinal lumen dilatation: * p < 0.05; ** p < 0.01; *** p < 0.001; “−“ indicates absence of activity; “+” indicates some relief of intestinal lumen dilatation; “#” indicates that all the zebrafishes died in the experiment; “&” indicates that 13 zebrafishes died in the experiment; settings: for Activity in relieving intestinal lumen dilatation: 1000 μg/mL, significance vs model control group of the same batch; for Intestinal lumen area (pixels, mean ± SE): 2 days after TNBS, n = 10; for Intestinal lumen area compared with the model control group (in words): 250, 500, 1000 μg/mL, Table 4
Description: Experimental animals: Wild-type AB strain zebrafishes, bred by natural pair mating. Zebrafishes aged 3 days post fertilization (3 dpf). Zebrafishes were kept in fish farming water at 28° C. (water quality: 200 mg of instant sea salt in each 1L of reverse osmosis water, with the conductivity of 450-550 μS/cm; pH of 6.5-8.5; and hardness of 50-100 mg/L CaCO3), the experimental animal use license number is: SYXK (Zhe) 2012-0171, and the breeding management met the requirements of the international AAALAC certification (certification number: 001458).
(1) Grouping: Polypeptide group: prepared into a stock solution of 20.0 mg/mL with ultrapure water and stored at −20° C.
Positive control group: prednisone, as white powder, with batch number C10016501, Shanghai Macklin Biochemical Technology Co., Ltd., stored at 4° C.; prepared into a 15.0 mg/mL stock solution with DMSO, and stored in aliquots at −20° C.
Normal control group and model control group.
(2) Experimental method: 3 dpf wild-type AB strain zebrafishes were randomly selected and placed in a 6-well plate, with 30 zebrafishes in each well (experimental group). Except for the normal control group, all other experimental groups were given TNBS in water to establish the zebrafish model of intestinal mucosal injury. After 2 days of treatment at 28° C., TNBS was removed, and polypeptide compound in water (at concentrations shown in Table 4) was given respectively, and for the positive control, prednisone was 15.0 μg/mL. A normal control group (healthy group) and a model control group (intestinal mucosal injury group) were set up at the same time. The capacity of each well (experimental group) was 3 mL. After 2 days of treatment at 28° C., 10 zebrafishes were randomly selected from each experimental group and photographed under a dissecting microscope. NIS-Elements D 3.20 advanced image processing software was used to analyze and collect data, and the intestinal lumen area of the zebrafish was analyzed. The statistical analysis results of this indicator were used to evaluate the efficacy of the samples in relieving colitis. The statistics results were expressed as mean±SE. SPSS26.0 software was used for statistical analysis, and p<0.05 indicates statistically significant difference.
The concentration gradient of the test substances set in this experimental system was 250 μg/mL, 500 μg/mL, and 1000 μg/mL. […] When the concentration of the test substance was further increased for intervention, the death phenomenon of zebrafishes was found in the group; therefore, in the subsequent rounds of activity evaluation, each test polypeptide compound was uniformly administered at 1000 μg/mL for intervention.

[3] = D 0-D 14, compound 12: 0.8 mg/kg, mesalazine: 30.0 mg/kg, enema once a day 14 days, mean ± SD
[4] = D 14, compound 12: 0.8 mg/kg, mesalazine: 30.0 mg/kg, enema once a day 14 days, mean ± SD
[5] = experimental endpoint, compound 12: 0.8 mg/kg, mesalazine: 30.0 mg/kg, enema once a day 14 days, mean ± SD
[6] = set treatment regimen, enema once a day 14 days, vs model control group

Nc1ccc(O)c(C(=O)O)c1 [Mesalazine, mesalazine, reference compound]
Body weight, Grouping day (D 0, g) ([1]; D 0, before treatment, compound 12: 0.8 mg/kg, mesalazine: 30.0 mg/kg, enema once a day, mean ± SD): 276.64 ± 7.47 g | DAI score AUC(0-14 d) (D 0-D 14) [1, 3]: 58.75 ± 2.93 | Weight change range (D 0-D 14, %) [1, 3]: −4.29 ± 7.79% | DAI score, Experimental day 1 (D 1, point) ([1]; D 1, compound 12: 0.8 mg/kg, mesalazine: 30.0 mg/kg, enema once a day, mean ± SD): 4.2 ± 0.4 point | DAI score, Experimental day 3 (D 3, point) ([1]; D 3, compound 12: 0.8 mg/kg, mesalazine: 30.0 mg/kg, enema once a day, mean ± SD): 6.2 ± 0.6 point | Body weight, Experimental day 5 (D 5, g) ([1]; D 5, compound 12: 0.8 mg/kg, mesalazine: 30.0 mg/kg, enema once a day, mean ± SD): 234.86 ± 8.07 g | Body weight, Experimental endpoint (D 14, g) [1, 4]: 264.43 ± 17.65 g | DAI score, Experimental endpoint (D 14, point) [1, 4]: 2.1 ± 1.6 point | Colon length (cm) [1, 5]: 14.76 ± 2.06 cm | Colon ulcer and inflammation score (point) [1, 5]: 4.30 ± 0.95 point | Colon weight (g) [1, 5]: 3.42 ± 1.15^ g | Colonic adhesion score (point) [1, 5]: 2.60 ± 0.52 point | Effect on disease progression of ulcerative colitis / DAI scores (in words) [1, 6]: no significant effect on the disease symptoms of ulcerative colitis | Effect on weight gain inhibition / weight loss response of model animals (in words) [1, 6]: did not show a significant weight improvement effect

EPVPQAKPRKVA [Compound 51]
Activity in relieving intestinal lumen dilatation [2]: * (* p < 0.05)

C[C@]12C=CC(=O)C=C1CC[C@@H]1[C@@H]2C(=O)C[C@@]2(C)[C@H]1CC[C@]2(O)C(=O)CO [Prednisone, prednisone, reference compound]
Intestinal lumen area (pixels, mean ± SE) ([2]; 15.0 μg/mL (positive control)): 34929 ± 1913 pixels

KEPVGQAKGRKVAAQ [Compound 34]
Activity in relieving intestinal lumen dilatation [2]: * (* p < 0.05)

Pro-Val-Pro-Glu-Ala (PVPEA; printed: Pro-Val-Pro-Glu-Ala) [Compound 40]
Activity in relieving intestinal lumen dilatation [2]: +

Pro-Arg-Lys-Val (PRKV; printed: Pro-Arg-Lys-Val) [Compound 18]
Activity in relieving intestinal lumen dilatation [2]: −

KEPVPQAKGRKVAAQ [Compound 33]
Activity in relieving intestinal lumen dilatation [2]: +

EPVP[dQ]AK [Compound 82]
Activity in relieving intestinal lumen dilatation [2]: +

VPPKEPVPQAKPRKVAAQ [Compound 100]
Activity in relieving intestinal lumen dilatation [2]: *** (*** p < 0.001)

KEPVPQAKARKVAAQ [Compound 26]
Activity in relieving intestinal lumen dilatation [2]: * (* p < 0.05)

KEPVPQAKPRKVAAN [Compound 104]
Activity in relieving intestinal lumen dilatation [2]: *** (*** p < 0.001)

PRKVAAQ [Compound 5]
Intestinal lumen area (pixels, mean ± SE) ([2]; 250 μg/mL in water): 42960 ± 2661 pixels | Intestinal lumen area (pixels, mean ± SE) ([2]; 500 μg/mL in water): 45713 ± 4481 pixels | Intestinal lumen area (pixels, mean ± SE) ([2]; 1000 μg/mL in water): 33977 ± 3524 pixels | Activity in relieving intestinal lumen dilatation [2]: * (* p < 0.05) | Intestinal lumen area compared with the model control group (in words) [2]: significant statistical differences compared with the model control group

Arg-Lys-Val-Ala (RKVA; printed: Arg-Lys-Val-Ala) [Compound 15]
Intestinal lumen area (pixels, mean ± SE) ([2]; 250 μg/mL in water): 40719 ± 4647 pixels | Intestinal lumen area (pixels, mean ± SE) ([2]; 500 μg/mL in water): 31319 ± 5274 pixels | Intestinal lumen area (pixels, mean ± SE) ([2]; 1000 μg/mL in water): 30268 ± 2437 pixels | Activity in relieving intestinal lumen dilatation [2]: * (* p < 0.05) | Intestinal lumen area compared with the model control group (in words) [2]: significant statistical differences compared with the model control group

EAVPQAK [Compound 53]
Activity in relieving intestinal lumen dilatation [2]: * (* p < 0.05)

Val-Pro-Gln-Ala (VPQA; printed: Val-Pro-Gln-Ala) [Compound 13]
Activity in relieving intestinal lumen dilatation [2]: −

KEPVPQAAPRKVAAQ [Compound 24]
Activity in relieving intestinal lumen dilatation [2]: +

D-Glu-Pro-Val-Pro-Gln-Ala-Lys ([dE]PVPQAK; also: acetate salt) [Compound 78]
Activity in relieving intestinal lumen dilatation [2]: +

K[dE]PVPQAKPRKVAAQ [Compound 62]
Activity in relieving intestinal lumen dilatation [2]: * (* p < 0.05)

EPVPQAKVPY [Compound 102]
Activity in relieving intestinal lumen dilatation [2]: +

EPVPQAKP [Compound 58]
Activity in relieving intestinal lumen dilatation [2]: +

EPVPQAR [Compound 45]
Activity in relieving intestinal lumen dilatation [2]: #
